Like-named read-outs stand apart in the source and are kept apart here.
Experiments:
MDCK cell monolayers = assay: Bidirectional transport in MDCK cell monolayers with selective transporter inhibitors or substrates; assay type: in vitro ADME, canine; conditions: 2 μM
Method: (§1) Caco-2, MDCK and MDCK-MRP2 cells were donated by Prof. Yan Xie and Yueming Ma from Shanghai University of Traditional Chinese Medicine. The cells were grown in culture dishes (Corning® Costar, Cambridge, MA, USA) using DMEM supplemented with 10% FBS, 1% NEAA and 1% penicillin-streptomycin solution. The cells were cultured in 5% CO2 and […] with 90% relative humidity at 37°C. The medium was replaced every other day during incubation. The cells were passaged every 3–4 days between 70 and 80% confluence at a 1:5 split ratio using 0.25% trypsin-EDTA. For the transport experiments, the cells from passages between 30 and 45 were seeded at 1 × 10^5 cells/cm^2 onto permeable polycarbonate inserts (0.45 μm pore size, seeding surface of 0.6 cm^2, Millipore, MA, USA) in 24-well plastic plates. The media in the culture plates were changed every other day for the first week after seeding and were replaced daily afterward. […] The cells were used for the transport experiments 21–28 (Caco-2) or 5–7 (MDCK and MDCK-MRP2) days after seeding, and only monolayers with a TEER-value above 420 Ω cm^2 were used during the studies.
(§2) The apical (AP) and basolateral (BL) sides are typical of polarized Caco-2, MDCK and MDCK-MRP2 epithelial cells. Before the experiments, the polarized cell monolayers were washed twice with warm HBSS solution and subsequently preincubated (37°C, 30 min). Afterward, HBSS solution on both sides of the cell monolayers was removed using a mini desktop vacuum pump. […] The final DMSO concentration in the HBSS or drug mixture was below 0.5%. The monolayers were incubated at 37°C, and 100 μL samples were taken at 30, 60, 90, and 120 min from the acceptor compartment and immediately replaced with the same volume of prewarmed fresh blank HBSS. TEER measurements for assessing the membrane integrity took place before and after the experiments.
(§3) The apparent permeability coefficients (Papp) and ER were calculated as Equations (2) and (3): […]
(§4) where dQ/dt is the steady-state flux, A is the membrane surface area, and C0 is the initial drug concentration in the donor compartment. PappBA is the Papp-value measured in BL to AP direction and PappAB is the Papp-value measured in AP to BL direction. It indicated the involvement of an active transport process when the ER-value is above 1.5 (Hubatsch et al., [2007]).

OCTs/OCTNs = assay: as above; assay type: in vitro ADME, canine; conditions: dog, with TEA 5 mM, + TEA 5 mM (OCTs/OCTNs)
Method: as §1, §2, §3, §4

[1] = tested on: MDCK-MRP2 cell monolayers; assay: Bidirectional transport in MDCK-MRP2 cell monolayers with MRP2 inhibitors; assay type: in vitro ADME, canine; conditions: MDCK-MRP2, 2 μM
Method: as §1, §2, §3, §4

MRP2 [2] = assay: as above; assay type: in vitro ADME, canine; conditions: dog, MDCK-MRP2, 2 μM; for efflux ratio at 120 min, 2 μM: read-out: ER
Method: as §1, §2, §3, §4

MRP2 [3] = assay: Western blot analysis of MRP2 protein expression in Caco-2 cells; assay type: cell-based, human; conditions: 48 h, 1, 2, and 5 μM
Method: The Caco-2 cells were seeded into 6-well plates at a density of 1 × 10^5 cells/mL and cultured for 24 h. […] Protein lysate was collected by centrifugation at 12,000 rpm at 4°C for 10 min, and the total protein content was determined using BCA protein assay kit. Proteins were then mixed with a quarter volume of loading buffer and heated at 100°C for 5 min. Approximately 20 μg of the total protein content was separated by SDS-PAGE through an 8% acrylamide gel and transferred to PVDF membranes. After washing with PBST, the membrane was blocked with 5% fat-free milk in PBST for 1 h at room temperature (RT) and then incubated with anti-MRP2 (1:500) and anti-GAPDH (1:5,000) overnight at 4°C. Afterwards, the membranes were rinsed with PBST and incubated with HRP-conjugated anti-rabbit (1:5,000) secondary antibody for 2 h at RT. After complete washing with PBST, the protein bands were visualized with ECL prime kit (GE Healthcare, NA, UK).

[4] = Cytotoxicity CCK-8 assay in Caco-2 cells; assay type: cell-based, human; conditions: human, Caco-2 cells; Caco-2, up to 25 μM, 12 h incubation; read-out: Cell viability
Method: (§5) In brief, the cells were seeded on 96-well plates at 1 × 10^5 cells/mL and cultured in 100 μL of culture medium at incubator for 24 h. […] After 12 h incubation, 10 μL of CCK-8 dye was added to each well, and cells were incubated for another 2 h. Cell viability (%) was calculated using the following Equation (1):
(§6) (1) Cell viability (%)=(ODsample−ODblank)/ (ODcontrol−ODblank) ×100%
(§7) ODsample refers to the absorbance of a well with treated cells and CCK-8. ODblank refers to the absorbance of a well with medium and CCK-8 but without cells. ODcontrol refers to the absorbance of a well with untreated cells and CCK-8. The absorbance at 450 nm was measured by a microplate reader (Biotek Instrument; Gene Co., Ltd., VT, USA), and the results are presented as mean ± SD from triplicate wells.

Caco-2 cells = assay: Cytotoxicity CCK-8 assay in Caco-2 cells; assay type: cell-based, human; conditions: Caco-2, CCK-8
Method: as §5, §6, §7

[5] = Metabolic stability in human liver microsomes
[6] = Control (no inhibitor or substrate)
[7] = with MK571 0.05 mM (50 μM), + MK571 0.05 mM (MRP2)
[8] = with probenecid 0.2 mM (200 μM), + Probenecid 0.2 mM (MRP2)

Compound: COc1ccc2c3c([nH]c2c1)C(C)=NCC3 [Harmaline]
- Modulatory effect (MDCK cell monolayers; + Apigenin 0.025 mM (BCRP)): −
- PappAB (MDCK cell monolayers; + Apigenin 0.025 mM (BCRP)): 20.44 ± 2.19 1 × 10^−6 cm/s
- Modulatory effect (MDCK cell monolayers; + Cimetidine 0.05 mM (OATs)): −
- Modulatory effect (MDCK cell monolayers; + ES 0.05 mM (OATPs)): −
- PappBA (MDCK cell monolayers; + ES 0.05 mM (OATPs)): 20.89 ± 0.79 1 × 10^−6 cm/s
- Modulatory effect (MDCK cell monolayers; + Gly-Sar 10 mM (PEPT1)): −
- Modulatory effect (MDCK cell monolayers; + Ko143 0.01 mM (BCRP)): −
- PappAB (MDCK cell monolayers; + Ko143 0.01 mM (BCRP)): 20.08 ± 0.41 1 × 10^−6 cm/s
- PappBA (MDCK cell monolayers; + Ko143 0.01 mM (BCRP)): 23.37 ± 0.73 1 × 10^−6 cm/s
- Modulatory effect (MDCK cell monolayers; + MK571 0.05 mM (MRP2)): −
- PappAB (MDCK cell monolayers; + MK571 0.05 mM (MRP2)): 19.66 ± 0.65 1 × 10^−6 cm/s
- PappBA (MDCK cell monolayers; + MK571 0.05 mM (MRP2)): 22.57 ± 0.14 1 × 10^−6 cm/s
- Modulatory effect (MDCK cell monolayers; + NaN3 10 mM (ATP)): +
- PappAB (MDCK cell monolayers; + NaN3 10 mM (ATP)): 16.22 ± 0.84^* 1 × 10^−6 cm/s
- PappBA (MDCK cell monolayers; + NaN3 10 mM (ATP)): 22.78 ± 1.65 1 × 10^−6 cm/s
- Modulatory effect (MDCK cell monolayers; + Phloretin 0.3 mM (MCTs)): −
- PappAB (MDCK cell monolayers; + Phloretin 0.3 mM (MCTs)): 20.34 ± 0.71 1 × 10^−6 cm/s
- PappAB (MDCK cell monolayers; + Phloridzin 0.5 mM (SGLT1)): 15.96 ± 0.96^* 1 × 10^−6 cm/s
- PappBA (MDCK cell monolayers; + Phloridzin 0.5 mM (SGLT1)): 20.59 ± 1.19 1 × 10^−6 cm/s
- Modulatory effect (MDCK cell monolayers; + Probenecid 0.2 mM (MRP2)): −
- PappAB (MDCK cell monolayers; + Probenecid 0.2 mM (MRP2)): 21.01 ± 2.16 1 × 10^−6 cm/s
- PappBA (MDCK cell monolayers; + Probenecid 0.2 mM (MRP2)): 21.86 ± 1.21 1 × 10^−6 cm/s
- Modulatory effect (MDCK cell monolayers; + Quinidine 0.1 mM (MDR1)): −
- Modulatory effect (MDCK cell monolayers; + Sodium vanadate 0.05 mM (Na^+)): +
- Modulatory effect (MDCK cell monolayers; + TEA 5 mM (OCTs/OCTNs)): +
- Modulatory effect (MDCK cell monolayers; + Verapamil 0.1 mM (MDR1)): −
- PappAB (MDCK cell monolayers; + Verapamil 0.1 mM (MDR1)): 20.96 ± 1.30 1 × 10^−6 cm/s
- PappAB (MDCK cell monolayers; [6]): 20.36 ± 1.82 1 × 10^−6 cm/s
- PappBA (MDCK cell monolayers; [6]): 21.03 ± 2.11 1 × 10^−6 cm/s
- Papp A→B at 120 min, 2 μM (OCTs/OCTNs): 16.5 ± 1.1 ×10⁻⁶ cm/s
- Papp B→A at 120 min, 2 μM (OCTs/OCTNs): 22.8 ± 0.29 ×10⁻⁶ cm/s
- efflux ratio at 120 min, 2 μM (OCTs/OCTNs; read-out: ER): 1.38
- Modulatory effect ([1]; + MK571 0.05 mM (MRP2)): −
- Modulatory effect ([1]; + Probenecid 0.2 mM (MRP2)): −
- Papp A→B at 120 min, 2 μM (MRP2 [2]; [7]): 31.8 ± 1.37 ×10⁻⁶ cm/s
- Papp B→A at 120 min, 2 μM (MRP2 [2]; [7]): 40.9 ± 5.48 ×10⁻⁶ cm/s
- efflux ratio at 120 min, 2 μM (MRP2 [2]; [7]): 1.34
- Papp A→B at 120 min, 2 μM (MRP2 [2]; [8]): 32.9 ± 2.23 ×10⁻⁶ cm/s
- Papp B→A at 120 min, 2 μM (MRP2 [2]; [8]): 41.9 ± 5.58 ×10⁻⁶ cm/s
- efflux ratio at 120 min, 2 μM (MRP2 [2]; [8]): 1.28
- Papp A→B at 120 min, 2 μM (MRP2 [2]; Control (no inhibitor)): 24.3 ± 2.72 ×10⁻⁶ cm/s
- Papp B→A at 120 min, 2 μM (MRP2 [2]; Control (no inhibitor)): 32.4 ± 3.81 ×10⁻⁶ cm/s
- efflux ratio at 120 min, 2 μM (MRP2 [2]; Control (no inhibitor)): 1.33
- effect on the expression of MRP2 (MRP2 [3]): no effect
- viability at 12 h [4]: > 90%
- concentration without toxicity or decreased cell viability (Caco-2 cells): up to 25 μM
- drug concentration producing notable toxicity (Caco-2 cells): higher than 100 μM
- residual percentage ([5]; human liver microsomes 0.5 mg protein/mL, 2 μM, after incubation): 64.16%
- half-life at 2 μM ([5]; human, liver microsomes): 2.46 h
- microsomal CLint at 2 μM ([5]; human, liver microsomes): 9.4 µL/min/mg

Source: publication PMC5566973 (Frontiers in Pharmacology, 2017)
